Data reported in publication PMC7012012, “Bioassay-guided isolation, identification of compounds from Origanum rotundifolium and investigation of their antiproliferative and antioxidant activities” (Pharmaceutical Biology, 2017).
“And” between values parts separate entries of the source, which are not always exact repeats. Identical values can stand only once.

Test system: Vero (African green monkey kidney epithelium) cells
Experiment: BrdU cell proliferation ELISA, Vero
Format: cell-based
Details: 5-100 μg/mL
Experimental: (§1) Anticancer potential of isolated compounds was investigated on C6, HT29, HeLa and Vero cell lines. These cells were sustained with Dulbecco’s modified eagle’s medium, complemented with foetal bovine serum and PenStep solution (ATCC, American Type Culture Collection). The old medium was aspirated out of the plate while cells had reached a confluence of 80% then cells were removed from the flasks using trypsin-EDTA (4 mL) and centrifuged. Afterward, cell pellet was suspended with DMEM and was counted to gain a final concentration as 5 × 10^4 cells/mL, inoculated into wells (100 μL cells/well).
(§2) The antiproliferative activity of compounds against various cell lines (C6, HeLa and Vero cells) was tested by cell proliferation assay using BrdU Cell Proliferation ELISA kit. A cell suspension containing nearly 5 × 10^3 cells in 100 μL was conveyed into the well cell plates (96-well cell). The treatments of cells with compounds in DMSO and 5-Florouracil (5 FU) in DMSO separately at concentration 5–100 μg/mL were carried out. The last volume of the wells was adapted to 200 μL by DMEM and mixture was incubated at 37 °C with 5% CO2 for overnight (Okten et al. [2013]).
(§3) The half inhibitory concentration of the isolated compounds and standards was calculated by XLfit5 software (IDBS) and explicated in μM at 95% confidence levels (Table 1). The proliferation results were recorded as the per cent inhibition of the compounds and control substances. The following formula was used for the calculation of inhibition % Inhibition = [Asample– Acontrol/Acontrol]×100
(§4) where Asample is the absorbance of the compounds and Acontrol is the absorbance of the DMSO.

Row | Compound | Antiproliferative activity on Vero (in words)
1 | O=c1cc(-c2ccc(O)cc2)oc2cc(O)cc(O)c12 [Compound 1, Apigenin] | did not reveal the remarkable activity
2 | O=C(/C=C/c1ccc(O)c(O)c1)O[C@H](Cc1ccc(O)c(O)c1)C(=O)O [Compound 5, rosmarinic acid] | good effect
3 | O=C(OC(Cc1ccc(O)c(O)c1)C(=O)O)c1cc(-c2ccc(O)c(O)c2)c2cc(O)c(O)cc2c1 (centres unmarked) [Compound 6, globoidnan A] | did not reveal the remarkable activity
4 | caprolactam [Compound 4] | did not reveal the remarkable activity
5 | vitexin [Compound 3] | effective at high concentrations

Same assay, conditions: BrdU ELISA

Row | Compound | IC50
6 | N.N.[Cl][Pt][Cl] [Cisplatin, reference compound] | 40.8 µM
7 | vitexin [Compound 3] | 46.7 µM

Same assay, conditions: Chlorocebus sabaeus, BrdU ELISA

Row | Compound | IC50
8 | O=C(/C=C/c1ccc(O)c(O)c1)O[C@H](Cc1ccc(O)c(O)c1)C(=O)O [Compound 5, rosmarinic acid] | 279 µM

Test system: C6 (rat brain tumour) cell lines
Experiment: BrdU cell proliferation ELISA, C6
Format: cell-based
Details: C6, 5-100 μg/mL
Experimental: as §1, §2, §3, §4

Row | Compound | Antiproliferative activity on C6 (in words)
9 | O=c1cc(-c2ccc(O)cc2)oc2cc(O)cc(O)c12 [Compound 1, Apigenin] | Noticeable effect has not been detected
10 | caprolactam [Compound 4] | Noticeable effect has not been detected

Same assay, conditions: C6, BrdU ELISA

Row | Compound | IC50
11 | N.N.[Cl][Pt][Cl] [Cisplatin, reference compound] | 61.5 µM
12 | O=C(/C=C/c1ccc(O)c(O)c1)O[C@H](Cc1ccc(O)c(O)c1)C(=O)O [Compound 5, rosmarinic acid] | 251 µM
13 | O=C(OC(Cc1ccc(O)c(O)c1)C(=O)O)c1cc(-c2ccc(O)c(O)c2)c2cc(O)c(O)cc2c1 (centres unmarked) [Compound 6, globoidnan A] | 169 µM
14 | vitexin [Compound 3] | 41.6 µM

Same assay, conditions: C6, BrdU ELISA; listed as cisplatin

Row | Compound | IC50
15 | N.N.[Cl][Pt][Cl] [Cisplatin, reference compound] | 61.5 µM

Same assay, conditions: C6 relative to Vero

Row | Compound | Tumour specificity C6
16 | N.N.[Cl][Pt][Cl] [Cisplatin, reference compound] | 0.66
17 | O=C(/C=C/c1ccc(O)c(O)c1)O[C@H](Cc1ccc(O)c(O)c1)C(=O)O [Compound 5, rosmarinic acid] | 1.11
18 | vitexin [Compound 3] | 1.12

Same assay, conditions: Rattus norvegicus, C6, BrdU ELISA

Row | Compound | IC50
19 | O=C(/C=C/c1ccc(O)c(O)c1)O[C@H](Cc1ccc(O)c(O)c1)C(=O)O [Compound 5, rosmarinic acid] | 252 µM
20 | O=C(OC(Cc1ccc(O)c(O)c1)C(=O)O)c1cc(-c2ccc(O)c(O)c2)c2cc(O)c(O)cc2c1 (centres unmarked) [Compound 6, globoidnan A] | 169 µM

Test system: not listed separately
Experiment: Ferric ions (Fe3+) reducing antioxidant power assay (FRAP)
Details: 10 μg/mL
Experimental: Different concentrations of samples (5–40 μg/mL) in 1 mL of deionized water were mixed with sodium phosphate buffer (1.25 mL, 0.2 M, pH 6.6) and potassium ferricyanide [K3Fe(CN)6] (1.25 mL, 1%). After the incubation of the mixture at 50 °C for 20 min, trichloroacetic acid (1.25 mL, 10%) and FeCl3 (0.25 mL, 0.1%) were added to the reaction medium. The reaction mixture was vortexed thoroughly and absorbance measurement at 700 nm was executed in a spectrophotometer.

Row | Compound | Reducing power (absorbance at 700 nm)
21 | COc1ccc(O)c(C(C)(C)C)c1 [BHA, butylated hydroxyanisole, reference compound] | 1.12
22 | Cc1cc(C(C)(C)C)c(O)c(C(C)(C)C)c1 [BHT, Butylated hydroxytoluene, reference compound] | 0.81
23 | O=c1cc(-c2ccc(O)cc2)oc2cc(O)cc(O)c12 [Compound 1, Apigenin] | 0.14
24 | O=C(/C=C/c1ccc(O)c(O)c1)O[C@H](Cc1ccc(O)c(O)c1)C(=O)O [Compound 5, rosmarinic acid] | 0.60
25 | O=C(OC(Cc1ccc(O)c(O)c1)C(=O)O)c1cc(-c2ccc(O)c(O)c2)c2cc(O)c(O)cc2c1 (centres unmarked) [Compound 6, globoidnan A] | 1.25
26 | Cc1c(C)c2c(c(C)c1O)CCC(C)(C(=O)O)O2 (centres unmarked) [Trolox, reference compound] | 0.61
27 | caprolactam [Compound 4] | 0.08
28 | vitexin [Compound 3] | 0.27

Test system: not listed separately
Experiment: ABTS radical cation scavenging assay
Details: 30 min, absorbance 734 nm; unit printed only in abstract
Experimental: 2,2″-Azino-bis (3-ethylbenzthiazoline-6-sulfonic acid) (ABTS) cation radical scavenging assay based on the decreasing ABTS radical cation, a blue/green chromophore with absorption at […], in comparison to that of BHA, BHT and Trolox. This method was executed as in the literature (Re et al. [1999]). Treatment of ABTS (2.0 mM) in phosphate buffer (0.1 M, pH 7.4) with potassium persulfate (K2S2O8) (2.45 mM) gave the ABTS^•+, kept at dark at Rt for 4 h. Initially, dilution of ABTS^•+ was performed with sodium phosphate buffer (pH 7.4, 0.1 M) to obtain absorbance 0.750 ± 0.025 at 734 nm. After all, ABTS^•+ solution (1.0 mL) was added to each extract solution in ethanol (3.0 mL) at different concentration (2.5–20 μg/mL). After 30 min, the inhibition was calculated for each concentration relative to a blank absorbance. The scavenging ability of ABTS^•+ was calculated by given equation:
ABTS^•+scavenging activity (%)=[(Ac – As)/Ac]*100 in which, Ac is the initial concentration of ABTS^•+ and As is the absorbance of the remaining concentration of ABTS^•+ in the samples.

Row | Compound | ABTS radical cation scavenging IC50
29 | COc1ccc(O)c(C(C)(C)C)c1 [BHA, butylated hydroxyanisole, reference compound] | 7.6 µg/mL
30 | O=C(/C=C/c1ccc(O)c(O)c1)O[C@H](Cc1ccc(O)c(O)c1)C(=O)O [Compound 5, rosmarinic acid] | 14.2 µg/mL
31 | O=C(OC(Cc1ccc(O)c(O)c1)C(=O)O)c1cc(-c2ccc(O)c(O)c2)c2cc(O)c(O)cc2c1 (centres unmarked) [Compound 6, globoidnan A] | 4.6 µg/mL
32 | caprolactam [Compound 4] | 61.5 µg/mL
33 | vitexin [Compound 3] | 3.6 µg/mL and 3.7 µg/mL

Now from value to compound:

Row | ABTS radical cation scavenging IC50 | Compound
34 | 5.0 µg/mL | Cc1cc(C(C)(C)C)c(O)c(C(C)(C)C)c1 [BHT, Butylated hydroxytoluene, reference compound]
35 | 8.9 µg/mL | O=c1cc(-c2ccc(O)cc2)oc2cc(O)cc(O)c12 [Compound 1, Apigenin]
36 | 13.8 µg/mL | Cc1c(C)c2c(c(C)c1O)CCC(C)(C(=O)O)O2 (centres unmarked) [Trolox, reference compound]

Test system: HeLa (human cervix carcinoma) cell lines
Experiment: BrdU cell proliferation ELISA, HeLa
Format: cell-based
Details: HeLa relative to Vero
Experimental: as §1, §2, §3, §4

Row | Compound | Tumour specificity HeLa
37 | N.N.[Cl][Pt][Cl] [Cisplatin, reference compound] | 0.92
38 | O=C(/C=C/c1ccc(O)c(O)c1)O[C@H](Cc1ccc(O)c(O)c1)C(=O)O [Compound 5, rosmarinic acid] | 1.19
39 | vitexin [Compound 3] | 1.31

Same assay, conditions: HeLa, 5-100 μg/mL

Row | Compound | Antiproliferative activity on HeLa (in words)
40 | O=c1cc(-c2ccc(O)cc2)oc2cc(O)cc(O)c12 [Compound 1, Apigenin] | did not reveal the noticeable activity

Same assay, conditions: HeLa, BrdU ELISA

Row | Compound | IC50
41 | N.N.[Cl][Pt][Cl] [Cisplatin, reference compound] | 44.2 µM
42 | O=C(OC(Cc1ccc(O)c(O)c1)C(=O)O)c1cc(-c2ccc(O)c(O)c2)c2cc(O)c(O)cc2c1 (centres unmarked) [Compound 6, globoidnan A] | 140 µM
43 | vitexin [Compound 3] | 35.6 µM

Same assay, conditions: Homo sapiens, HeLa, BrdU ELISA

Row | Compound | IC50
44 | O=C(/C=C/c1ccc(O)c(O)c1)O[C@H](Cc1ccc(O)c(O)c1)C(=O)O [Compound 5, rosmarinic acid] | 233 µM
45 | O=C(OC(Cc1ccc(O)c(O)c1)C(=O)O)c1cc(-c2ccc(O)c(O)c2)c2cc(O)c(O)cc2c1 (centres unmarked) [Compound 6, globoidnan A] | 140 µM

Test system: not listed separately
Experiment: DPPH free radical scavenging assay
Details: 30 min, absorbance 517 nm
Experimental: The free radical scavenging activities of extracts and standards were evaluated by 2,2-diphenyl-1-picrylhydrazil (DPPH^•) (Blois [1958]). To a different concentration of 3.0 mL of extract (3.0–20 μg/mL) in ethanol, DPPH^• solution (1.0 mL, 0.26 mM) were added. After that it is stirred and kept at Rt for 30 min, The absorbance of the mixture was executed at 517 nm in a spectrophotometer. The activity was calculated by the below equation. DPPH• scavenging effect %=Ac-As/Ac×100
In which, Ac and As are the control and sample absorbance, respectively.

Row | Compound | IC50
46 | COc1ccc(O)c(C(C)(C)C)c1 [BHA, butylated hydroxyanisole, reference compound] | 12.9 µM
47 | O=C(/C=C/c1ccc(O)c(O)c1)O[C@H](Cc1ccc(O)c(O)c1)C(=O)O [Compound 5, rosmarinic acid] | 47.2 µM
48 | O=C(OC(Cc1ccc(O)c(O)c1)C(=O)O)c1cc(-c2ccc(O)c(O)c2)c2cc(O)c(O)cc2c1 (centres unmarked) [Compound 6, globoidnan A] | 22.4 µM
49 | caprolactam [Compound 4] | 329 µM
50 | vitexin [Compound 3] | 31.4 µM

Further lines, results first:

Row | IC50 | Compound
51 | 196 µM | Cc1cc(C(C)(C)C)c(O)c(C(C)(C)C)c1 [BHT, Butylated hydroxytoluene, reference compound]
52 | 173 µM | O=c1cc(-c2ccc(O)cc2)oc2cc(O)cc(O)c12 [Compound 1, Apigenin]

Test system: HT29 (human colon carcinoma) cell lines
Experiment: BrdU cell proliferation ELISA, HT29
Format: cell-based
Details: HT29, 5-100 μg/mL
Experimental: as §1, §2, §3, §4

Row | Compound | Antiproliferative activity on HT29 (in words)
53 | O=c1cc(-c2ccc(O)cc2)oc2cc(O)cc(O)c12 [Compound 1, Apigenin] | has not a noteworthy effect

Same assay, conditions: HT29, BrdU ELISA

Row | Compound | IC50
54 | N.N.[Cl][Pt][Cl] [Cisplatin, reference compound] | 48.6 µM
55 | O=C(/C=C/c1ccc(O)c(O)c1)O[C@H](Cc1ccc(O)c(O)c1)C(=O)O [Compound 5, rosmarinic acid] | 262 µM
56 | O=C(OC(Cc1ccc(O)c(O)c1)C(=O)O)c1cc(-c2ccc(O)c(O)c2)c2cc(O)c(O)cc2c1 (centres unmarked) [Compound 6, globoidnan A] | 136 µM
57 | vitexin [Compound 3] | 32.5 µM

Same assay, conditions: HT29 relative to Vero

Row | Compound | Tumour specificity HT29
58 | N.N.[Cl][Pt][Cl] [Cisplatin, reference compound] | 0.84
59 | O=C(/C=C/c1ccc(O)c(O)c1)O[C@H](Cc1ccc(O)c(O)c1)C(=O)O [Compound 5, rosmarinic acid] | 1.07
60 | vitexin [Compound 3] | 1.43

Same assay, conditions: Homo sapiens, HT-29, HT29, BrdU ELISA

Row | Compound | IC50
61 | O=C(/C=C/c1ccc(O)c(O)c1)O[C@H](Cc1ccc(O)c(O)c1)C(=O)O [Compound 5, rosmarinic acid] | 262 µM
62 | O=C(OC(Cc1ccc(O)c(O)c1)C(=O)O)c1cc(-c2ccc(O)c(O)c2)c2cc(O)c(O)cc2c1 (centres unmarked) [Compound 6, globoidnan A] | 136 µM
